Among the data in the supplement of paper PMC10307832 are relative viability values, retold here.

Holding throughout (assay): relative viability (nuclei count vs DMSO), 5 days (fraction); higher = more cells survive
Compound in assay [1]: COc1cccc2cc(-c3nc([C@H]4CC[C@H](C(=O)O)CC4)n4ncnc(N)c34)[nH]c12 [OSI-027] + O=C(c1cc(Cc2n[nH]c(=O)c3ccccc23)ccc1F)N1CCN(C(=O)C2CC2)CC1 [Olaparib] (partner 8 µM)
In outline:
(§1)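 Relative viability equals treated-well nuclei counts divided by vehicle-well nuclei counts. Counts came from 4× images of lung cancer cell lines grown in 1536-well plates for 5 days after pin-tool dosing on the day after seeding. Dosing used one drug alone or a fixed anchor-drug dose plus five library-drug doses (not always all listed) in √10 steps, and values are medians of duplicate plates.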

Compound in assay [2]: COc1cccc2cc(-c3nc([C@H]4CC[C@H](C(=O)O)CC4)n4ncnc(N)c34)[nH]c12 [OSI-027] + CC(=O)Nc1cccc(-n2c(=O)n(C3CC3)c(=O)c3c(Nc4ccc(I)cc4F)n(C)c(=O)c(C)c32)c1 [Trametinib] (partner 0.02 µM)
The method in brief:
as §1

Compound in assay [3]: COc1cccc2cc(-c3nc([C@H]4CC[C@H](C(=O)O)CC4)n4ncnc(N)c34)[nH]c12 [OSI-027] + CS(=O)(=O)CCNCc1ccc(-c2ccc3ncnc(Nc4ccc(OCc5cccc(F)c5)c(Cl)c4)c3c2)o1 [Lapatinib] (partner 2 µM)
In outline: as §1

Compound in assay [4]: COc1cccc2cc(-c3nc([C@H]4CC[C@H](C(=O)O)CC4)n4ncnc(N)c34)[nH]c12 [OSI-027] + CC(C)C[C@H](NC(=O)[C@H](Cc1ccccc1)NC(=O)c1cnccn1)B(O)O [Bortezomib] (partner 0.002 µM)
The method in brief: as §1

Regarding UMC-11, the relative viability was found to be 0.388 in assay [1] (first compound 0.01 µM); 0.42 in assay [1] (first compound 0.03162 µM); 0.31 in assay [1] (first compound 0.1 µM); 0.349 in assay [1] (first compound 0.3162 µM); 0.291 in assay [1] (first compound 1 µM); 0.727 in assay [2] (first compound 0.01 µM). For the same cell line, the relative viability in assay [2] (first compound 0.03162 µM) worked out at 0.772; in assay [2] (first compound 0.1 µM), 0.579; in assay [2] (first compound 0.3162 µM), 0.472; in assay [2] (first compound 1 µM), 0.392; in assay [3] (first compound 0.01 µM) it was 0.934; in assay [3] (first compound 0.03162 µM), 0.939. Besides, the relative viability stood at 0.805 in assay [3] (first compound 0.1 µM); 0.693 in assay [3] (first compound 0.3162 µM); 0.506 in assay [3] (first compound 1 µM); 0.565 in assay [4] (first compound 0.01 µM); 0.646 in assay [4] (first compound 0.03162 µM); 0.696 in assay [4] (first compound 0.1 µM). The results for the relative viability in assay [4] (first compound 0.3162 µM) and in assay [4] (first compound 1 µM) were 0.668 and 0.503, respectively.
